In patent US20230339991A1, “HYPOXIA-ACTIVATED DNA ALKYLATING AGENT AND MEDICAL USE THEREOF” (ASCENTAWITS PHARMACEUTICALS, LTD., priority 2020, published 2023):
Values joined by “and” are separate entries in the source; they are usually repeats but may differ in a detail not shown here. Equal values may be shown once. Read-outs that look alike come from different tables or passages of the source. Marks after values point to notes of the source that are not given here.

What was measured:
Plasma stability, human = format: in vitro ADME; conditions: for Remaining percentage: after 30 minutes, 5 μM, 37° C.; for plasma stability: human plasma
Experimental: The pH of the plasma was checked and recorded. Note: a.
The final concentration of solvent was 0.5%.
The assay is performed in duplicate.

[1] = system: HuPrime model GA6201 human gastric cancer subcutaneous transplantation PDX tumor; experiment: GA6201 human gastric cancer subcutaneous PDX model; format: in vivo, BALB/c nude mice
CYP450R enzyme = target: T1, CYP450R enzyme (Homo sapiens, UniProt P16435); experiment: Hypoxia-dependent reduction experiments; format: biochemical; conditions: for reduction rate compared (compound A vs TH-302): NADPH and CYP 450R enzymes
T1 sequence (P16435 1-677): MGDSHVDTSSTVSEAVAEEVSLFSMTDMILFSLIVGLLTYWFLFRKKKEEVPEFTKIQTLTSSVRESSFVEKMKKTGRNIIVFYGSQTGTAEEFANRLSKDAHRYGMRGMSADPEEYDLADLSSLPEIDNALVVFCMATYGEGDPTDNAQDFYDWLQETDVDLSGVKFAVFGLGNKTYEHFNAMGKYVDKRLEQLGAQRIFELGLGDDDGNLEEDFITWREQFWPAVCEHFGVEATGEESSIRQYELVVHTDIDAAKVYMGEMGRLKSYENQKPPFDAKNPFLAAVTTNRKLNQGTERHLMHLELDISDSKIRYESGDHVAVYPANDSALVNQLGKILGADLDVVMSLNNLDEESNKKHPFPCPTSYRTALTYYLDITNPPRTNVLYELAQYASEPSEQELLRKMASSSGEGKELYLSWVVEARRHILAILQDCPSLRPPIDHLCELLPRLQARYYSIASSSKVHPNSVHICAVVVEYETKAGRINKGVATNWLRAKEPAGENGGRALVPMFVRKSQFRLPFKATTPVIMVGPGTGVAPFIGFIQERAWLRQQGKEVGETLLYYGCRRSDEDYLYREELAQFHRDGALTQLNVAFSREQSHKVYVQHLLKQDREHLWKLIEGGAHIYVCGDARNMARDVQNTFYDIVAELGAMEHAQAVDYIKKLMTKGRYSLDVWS
Experimental: The ingredients were added to each test tube without the addition of NADPH. Then 50 μl of sample from condition B was transferred to 100 μl acetonitrile (T=0). For samples to be tested under hypoxic conditions, the test tubes were placed in an hypoxic chamber (BACTRON anaerobic/environmental chamber). The reaction was initiated by adding NADPH to test tubes A and C and the sample was then placed at 37° C. For samples to be tested in air, the test tubes were placed in a hot plate at 37° C. After 30 minutes and 2 hours of incubation, 50 μl of samples were taken from each test tube and mixed with 100 μl acetonitrile. Any protein precipitate was removed by spinning all test tubes and placed into HPLC vials for analysis. The results were compared to the calibration curve of the real standard.

PSN-1 cells = experiment: Clonogenic assay, PSN-1; format: cell-based, human; conditions: for IC90: Homo sapiens, PSN1, 3 h; for HCR: IC90 ratio normoxic/N2
Experimental: (§1) The following PSN-1 cells, PANC1 cells, MiaPaCa-2 cells, H460 cells, DLD-1 WT (wild type) cells, DLD-1 BRCA2 KO (BRCA2 deletion) cells were seeded in 10 cm vitreous cell culture plates at specific cell numbers and incubated for 2 days at 37° C. and under the conditions of 5% CO2, 95% air and 100% relative humidity. On day 3, test compounds TH302 or AST-002-P2 at the specific concentrations were added to the cells, and incubated for 3 hours together with the cells under normoxic (21% O2) and hypoxic conditions (<0.01% O2), respectively. After cells were stimulated by compounds, the cells were washed once with 1×PBS and digested into single cells with pancreatic enzymes for cell counting. The above cells in specific cell numbers were reseeded in a new culture plate and cultured for 7 days to perform single cell colony formation. When single cells in compound culture plates stimulated under normoxic conditions proliferated to about 50 cells, the cultures were removed and stained with 0.5% crystal violet for 40 minutes. After staining, cells were counted for colonies using Colony Counter (VWR) and the IC90 was calculated.

H460 cells = experiment: Clonogenic assay, H460; format: cell-based, human; conditions: for IC90: Homo sapiens, NCI-H460, 3 h; for HCR: IC90 ratio normoxic/N2
Experimental: as §1

[2] = 21% O2, read-out: IC90 Normoxia
[3] = <0.01% O2, read-out: IC90 Hypoxia

With O=[N+]([O-])c1ccc(C(OP(=O)(N2CC2)N2CC2)C(F)(F)F)c2ccccc12 (racemic) [Compound A] the “Remaining percentage (%)” value (Plasma stability, human; Human plasma, 15 min) was 108 ± 0.773%, the “Remaining percentage (%)” value (Plasma stability, human; Human plasma, 60 min) was 99.2 ± 3.39% and the “Remaining percentage (%)” value (Plasma stability, human; Human plasma, 90 min) was 93.8 ± 3.12%. For the same compound, the “Remaining percentage (%)” value (Plasma stability, human; Human plasma, 120 min) was 89.7% and 89.7 ± 4.43%, the “Remaining percentage (%)” value (Plasma stability, human; Human plasma, 2 h time course, 0 min) was 100% and the Remaining percentage (Plasma stability, human; Human plasma) was 68.68%. The t½ (Plasma stability, human; Human plasma, in vitro) was >373* min, the half-life at 5 µM (Plasma stability, human; Human plasma, in vitro, read-out: t½) was greater than 6.22 h and the “Remaining percentage (%)” value (Plasma stability, human; Human plasma, time course, 30 min) was 102 ± 3.85%. For the same compound, the “plasma stability” value (Plasma stability, human) was “stable”, the “effect of tumor growth inhibition compared with isocyclophosphamide” value ([1]; GA6201 PDX) was “significant advantages” and the tumor volume ([1]; Group 06, 5-50 mg/kg regimen, day 7) was 123.19 mm^3. For the same compound, the tumor volume ([1]; Group 06, 5-50 mg/kg regimen, day 17) was 219.91 mm^3, the tumor volume ([1]; Group 06, 5-50 mg/kg regimen, day 21) was 246.57 mm^3 and the tumor volume ([1]; Group 06, 5-50 mg/kg regimen, day 24) was 271.72 mm^3. The tumor volume ([1]; Group 06, 5-50 mg/kg regimen, day 31) was 270.68 mm^3, the tumor volume ([1]; Group 06, 5-50 mg/kg regimen, day 35) was 299.31 mm^3 and the tumor volume ([1]; Group 06, 5-50 mg/kg regimen, day 38) was 277.17 mm^3. The tumor volume ([1]; Group 06, 5-50 mg/kg regimen, day 45) was 342.08 mm^3, the tumor volume ([1]; Group 06, 5-50 mg/kg regimen, day 49) was 287.47 mm^3 and the “reduction rate compared (compound A vs TH-302)” value (CYP450R enzyme) was “similar”. For the same compound, the hypoxia-dependent reduction reaction (CYP450R enzyme; in the presence of NADPH and CYP 450R enzymes, 37° C.) was “showed a hypoxia-dependent reduction reaction”.
For O=[N+]([O-])c1ccc([C@@H](OP(=O)(N2CC2)N2CC2)C(F)(F)F)c2ccccc12 (single isomer, unassigned) [Compound C], the IC90 (PSN-1 cells; [2]) was greater than 1000 nM, the IC90 (PSN-1 cells; [3]) was 286 nM and the HCR (PSN-1 cells) was greater than 3.5. For the same compound, the IC90 (H460 cells; [2]) was 66 nM, the IC90 (H460 cells; [3]) was 41 nM and the HCR (H460 cells) was 1.6.
In the case of CC(OP(=O)(N1CC1)N1CC1)c1ccc([N+](=O)[O-])c2ccccc12 (stereo not shown) [Compound D], the Remaining percentage (Plasma stability, human; Human plasma) is reported as 97.06% and the “plasma stability” value (Plasma stability, human) is reported as “secondarily”.
Work on Cn1c(COP(=O)(NCCBr)NCCBr)cnc1[N+](=O)[O-] [TH-302, Evofosfamide] yielded an IC90 (PSN-1 cells; [2]) of 30500 nM, an IC90 (PSN-1 cells; [3]) of 164 nM and an HCR (PSN-1 cells) of 186. The tumor volume ([1]; Group 02, 60 mg/kg i.p., day 3) was 122.22 mm^3, the tumor volume ([1]; Group 02, 60 mg/kg i.p., day 7) was 129.39 mm^3 and the tumor volume ([1]; Group 02, 60 mg/kg i.p., day 10) was 175.00 mm^3. For the same compound, the tumor volume ([1]; Group 02, 60 mg/kg i.p., day 14) was 190.74 mm^3, the tumor volume ([1]; Group 02, 60 mg/kg i.p., day 17) was 189.23 mm^3 and the tumor volume ([1]; Group 02, 60 mg/kg i.p., day 21) was 217.96 mm^3. For the same compound, the tumor volume ([1]; Group 02, 60 mg/kg i.p., day 24) was 225.66 mm^3, the tumor volume ([1]; Group 02, 60 mg/kg i.p., day 28) was 247.04 mm^3 and the tumor volume ([1]; Group 02, 60 mg/kg i.p., day 31) was 265.76 mm^3. For the same compound, the tumor volume ([1]; Group 02, 60 mg/kg i.p., day 35) was 324.51 mm^3, the tumor volume ([1]; Group 02, 60 mg/kg i.p., day 38) was 371.02 mm^3 and the tumor volume ([1]; Group 02, 60 mg/kg i.p., day 42) was 403.47 mm^3. It also gave a tumor volume ([1]; Group 02, 60 mg/kg i.p., day 45) of 484.83 mm^3, a tumor volume ([1]; Group 02, 60 mg/kg i.p., day 49) of 578.60 mm^3 and a tumor volume ([1]; Group 02, 60 mg/kg, QDx5/week × 2 wks, i.p., day 0) of 94.15 mm^3. The IC90 (H460 cells; [2]) was 15600 nM, the IC90 (H460 cells; [3]) was 21 nM and the HCR (H460 cells) was 741. The “reduction rate compared (compound A vs TH-302)” value (CYP450R enzyme) was “similar”.
